In patent publication US4791139A, “Diphenyl ether derivatives and their use as insecticides” (Imperial Chemical Industries PLC, priority 1986, dated 1988):

Columns and labels:
Type in all cases: in vivo
[1] = system: Tetranychus urticae (spider mites - ova); test: Contact test, spider mites - ova (TUe), French bean leaf; details: 144 h, 6 days, read-out: TUE grading of mortality
Summary of the method: (§1)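 Product dissolved in acetone, then diluted with water holding 0.1% by weight wetting agent to give 100 to 500 ppm preparations. Pests were held on a host plant or foodstuff, and pests and/or medium were treated. Mortality was assessed one to seven days after treatment.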

Myzus persicae (aphids) = test: Contact test, aphids (MP), Chinese Cabbage leaf; details: 72 h, 3 days, read-out: MP grading of mortality
Summary of the method: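 Aphids on a host plant and/or the plant itself were treated with 100–500 ppm of product, applied from acetone diluted in water containing 0.1% SYNPERONIC NX wetting agent. Mortality was scored usually one to seven days after treatment.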

[2] = system: Musca domestica (houseflies - adults); test: Contact test, houseflies - adults (MD), Cotton wool/sugar; details: 24 h, 1 day, read-out: MD grading of mortality
Summary of the method: as §1

[3] = system: Diabrotica balteata (rootworm larvae); test: Residual test, rootworm larvae (DB), Filter paper/maize seed; details: 72 h, 3 days, read-out: DB grading of mortality
Summary of the method: as §1

[4] = system: Tetranychus urticae (spider mites - adult); test: Contact test, spider mites - adult (TUa), French bean leaf; details: 72 h, 3 days, read-out: TUA grading of mortality
Summary of the method: as §1

[5] = system: Meloidogyne incognita (Tomato root knot eelworm - larvae); test: Residual test, Tomato root knot eelworm - larvae (MI), Semi in-vitro; details: 168 h, application rate is half that recorded, 7 days, read-out: MI grading of mortality; for mortality at 250 µg/mL: rate column 500 ppm
Description: The activity of the Product was determined using a variety of insect pests. The Product was used in the form of liquid preparations containing from 100 to 500 parts per million (ppm) by weight of the Product. The preparations were made by dissolving the Product in acetone and diluting the solutions with water containing 0.1% by weight of a wetting agent sold under the trade name "SYNPERONIC" NX until the liquid preparations contained the required concentration of the Product.
The test procedure adopted with regard to each pest was basically the same and comprised supporting a number of the pests on a medium which was usually a host plant or a foodstuff on which the pests feed, and treating either or both the pests and the medium with the preparations. The mortality of the pests was then assessed at periods usually varying from one to seven days after the treatment.
The results of the tests are given in Table III for each of the Products, at the rate in parts per million given in the second column as a grading of mortality designated as A, B or C wherein A indicates 80-100% mortality or knockdown (70-100% for Meloidogyne incognita), B indicates 50-79% mortality knockdown or knockdown (50-69% for Meloidogyne incognita) and C indicates less than 50% mortality or knockdown.

[6] = system: Blattella germanica (cockroach nymphs); test: Residual test, cockroach nymphs (BG), Plastic pot; details: 72 h, 3 days, read-out: BG grading of mortality
Summary of the method: as §1

[7] = system: Spodoptera exigua (lesser army worm - larvae); test: Residual test, lesser army worm - larvae (SP), Cotton leaf; details: 72 h, 3 days, read-out: SP grading of mortality
Summary of the method: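 Compound dissolved in acetone and diluted in water with 0.1% Synperonic NX wetting agent to 100–500 ppm. Pests on host plant or food, with pests and/or medium treated. Mortality assessed 1–7 days after treatment and graded A (80–100%), B (50–79%) or C (<50%).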

[8] = system: Musca domestica (houseflies - adults); test: Knockdown test, houseflies - adults (MD/KD), Cotton wool/sugar; details: 4 hours, read-out: MD/KD grading of knockdown
Summary of the method: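 Product was dissolved in acetone and diluted with water containing 0.1% wetting agent to 100–500 ppm. The flies and/or their food medium were treated with the preparation. Mortality was scored 1–7 days after treatment, with an additional knockdown assessment for houseflies.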

[9] = system: Heliothis virescens (tobacco budworm - larvae); test: Residual test, tobacco budworm - larvae (HV), Cotton leaf; details: 72 h, read-out: HV grading of mortality
Summary of the method: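 Products applied as acetone solutions diluted in water with 0.1% wetting agent, at 100–500 ppm; pests on host plant or food, with pests and/or medium treated. Mortality or knockdown scored 1–7 days after treatment and graded A (80–100%), B (50–79%) or C (<50%).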

[10] = system: Nilaparvata lugens (brown plant hopper - nymphs); test: Contact test, brown plant hopper - nymphs (NL), Rice plant; details: 72 h, 3 days, read-out: NL grading of mortality
Summary of the method: as §1

Row | SMILES | mortality at 500 ppm [1] [%] | mortality at 500 ppm (Myzus persicae (aphids)) [%] | mortality at 500 ppm [2] [%] | mortality at 500 ppm [3] [%] | mortality at 500 ppm [4] [%] | mortality at 250 µg/mL [5] [%] | mortality at 500 ppm [6] [%] | mortality at 500 ppm [7] [%] | pest or weed control at 500 ppm [8] [%] | mortality at 500 ppm [9] [%] | mortality at 500 ppm [10] [%] | other results
1 | Fc1cc(C(CCCc2cccc(Oc3ccccc3)c2)C(F)(F)F)cc(F)c1OC(F)(F)F (racemic) [Compound 71, 1,1,1-Trifluoro-2-(3,5-difluoro-4-trifluoromethoxyphenyl)-5-(3-phenoxyphenyl)pentane] | < 50 | 80 to 100 | < 50 | 80 to 100 | < 50 | 70 to 100 | < 50 | 80 to 100 | < 50 | 80 to 100 | 50 to 79 | 
2 | CCOc1ccc(C(=CC=Cc2cccc(Oc3ccccc3)c2)C(F)F)cc1 [Compound 65, 1,1-Difluoro-2-(4-ethoxyphenyl)-5-(3-phenoxyphenyl)penta-2,4-diene] | < 50 | < 50 | < 50 | < 50 | < 50 | < 50 | < 50 | < 50 | < 50 | < 50 | < 50 | 
3 | CCOc1ccc(C(CC=Cc2cccc(Oc3ccccc3)n2)C(F)(F)F)cc1 (stereo not drawn) [Compound 99, 1,1,1-Trifluoro-2-(4-ethoxyphenyl)-5-(6-phenoxypyrid-2-yl)pent-4-ene] | < 50 | 50 to 79 | 80 to 100 | < 50 | < 50 | < 50 | < 50 | 50 to 79 | 80 to 100 | 80 to 100 | < 50 | 
4 | Fc1ccc(C=CC=C(c2ccc(OC(F)(F)F)cc2)C(F)(F)Cl)cc1Oc1ccccc1 [Compound 76, 1,1-Difluoro-1-chloro-2-(4-trifluoromethoxyphenyl)-5-(4-fluoro-3-phenoxyphenyl)penta-2,4-diene] | < 50 | < 50 | < 50 | 80 to 100 | < 50 | < 50 | < 50 | < 50 | < 50 | < 50 | 80 to 100 | 
5 | FC(F)C(F)(F)Oc1ccc(C(CCCc2cccc(Oc3ccccc3)c2)C(F)(F)F)cc1 (racemic) [Compound 63, 1,1,1-trifluoro-2-[4-(1,1,2,2-tetrafluoroethoxy)phenyl]-5-(3-phenoxyphenyl)pentane] | 80 to 100 | 80 to 100 | 80 to 100 | 80 to 100 | 80 to 100 | < 50 | 80 to 100 | 80 to 100 | 80 to 100 | 80 to 100 | 80 to 100 | 
6 | CCOc1ccc(C(CCCc2cccc(Oc3ccccc3)c2)C(F)(F)F)cc1F (racemic) [Compound 56, 1,1,1-Trifluoro-2-(3-fluoro-4-ethoxyphenyl)-5-(3-phenoxyphenyl)pentane] | 80 to 100 | 80 to 100 | 80 to 100 | 80 to 100 | 80 to 100 | < 50 | 80 to 100 | 80 to 100 | 80 to 100 | 80 to 100 | 80 to 100 | 
7 | CCOc1c(F)cc(C(CCCc2cccc(Oc3ccccc3)c2)C(F)(F)F)cc1F (racemic) [Compound 57, 1,1,1-Trifluoro-2-(3,5-difluoro-4-ethoxyphenyl)-5-(3-phenoxyphenyl)pentane] | 80 to 100 | 80 to 100 | 80 to 100 | 80 to 100 | 80 to 100 | < 50 | 80 to 100 | 80 to 100 | 80 to 100 | 80 to 100 | 80 to 100 | 
8 | OC(CCCc1cccc(Oc2ccccc2)c1)(c1ccc(OC(F)(F)F)cc1)C(F)(F)F (racemic) [Compound 59, 1,1,1-trifluoro-2-hydroxy-2-(4-trifluoromethoxyphenyl)-5-(3-phenoxyphenyl)pentane] | < 50 | < 50 | < 50 | 80 to 100 | 80 to 100 | < 50 | < 50 | < 50 | < 50 | < 50 | 80 to 100 | 
9 | CC1(C)Oc2ccc(C(CCCc3cccc(Oc4ccccc4)c3)C(F)(F)F)cc2O1 (stereo not drawn) [Compound 58, 1,1,1-Trifluoro-2-[3,4-(dimethylmethylenedioxy)phenyl]-5-(3-phenoxyphenyl)pentane] | 80 to 100 | 50 to 79 | 80 to 100 | 80 to 100 | < 50 | < 50 | 80 to 100 | 50 to 79 | 80 to 100 | < 50 | 80 to 100 | 
10 | Fc1cc(C(=CC=Cc2cccc(Oc3ccccc3)c2)C(F)(F)F)cc(F)c1OC(F)(F)F [Compound 75, 1,1,1-Trifluoro-2-(3,5-difluoro-4-trifluoromethoxyphenyl)-5-(3-phenoxyphenyl)penta-2,4-diene] | < 50 | < 50 | < 50 | < 50 | < 50 | < 50 | < 50 | < 50 | < 50 | < 50 | < 50 | 
11 | Fc1ccc(C(CCCc2cccc(Oc3ccccc3)c2)C(F)(F)F)cc1 (racemic) [Compound 53, 1,1,1-Trifluoro-2-(4-fluorophenyl)-5-(3-phenoxyphenyl)pentane] |  |  |  |  |  |  |  |  |  |  |  | mortality at 250 ppm ([1]; 250 ppm): < 50%; mortality at 250 ppm (Myzus persicae (aphids); 250 ppm): 80 to 100%; mortality at 250 ppm ([2]; 250 ppm): 80 to 100%; mortality at 250 ppm ([3]; 250 ppm): 80 to 100%; mortality at 250 ppm ([4]; 250 ppm): 80 to 100%; mortality at 125 µg/mL ([5]; rate 250 ppm): < 50%; mortality at 250 ppm ([6]; 250 ppm): 80 to 100%; mortality at 250 ppm ([7]; 250 ppm): 80 to 100%; pest or weed control at 250 ppm ([8]; 250 ppm): < 50%; mortality at 250 ppm [9]: 80 to 100%; mortality at 250 ppm ([10]; 250 ppm): 80 to 100%
12 | CCOc1c(F)cc(C(=CCCc2cccc(Oc3ccccc3)c2)C(F)(F)F)cc1F [Compound 51, 1,1,1-Trifluoro-2-(3,5-difluoro-4-ethoxyphenyl)-5-(3-phenoxyphenyl)pent-2-ene] | < 50 | 80 to 100 | 80 to 100 | 80 to 100 | < 50 | < 50 | 80 to 100 | 80 to 100 | 80 to 100 | 80 to 100 | < 50 | 
